Data on one compound can be found in ChEMBL document CHEMBL5316357, “Discovery of Linvencorvir (RG7907), a Hepatitis B Virus Core Protein Allosteric Modulator, for the Treatment of Chronic HBV Infection” (J Med Chem, 2023).

For orientation: AUC(0-inf) means the area under the concentration-time curve extrapolated to infinity. What is called AUC(0-t) is the area under the concentration-time curve up to a stated or last time point. What is called Cmax is the maximum level reached in the sampled fluid or tissue. The Tmax is the time at which the peak concentration occurs. What is called half-life is how long it takes for the measured level to halve. By bioavailability is commonly meant the share of a dose that reaches the circulation, judged against a reference dose that is usually intravenous. A word on the IC50: it is the concentration at which inhibition is half-maximal.

Structures are written as SMILES. Some results are limits rather than exact numbers.

The nature of data set [1]: AUC (0-infinity) in mouse liver at 3 mg/kg,po. The class given is ADME, organism-based. Details: dose 3 mg/kg, route po.
Data set [2] is described as follows: AUClast in minipig at 2 mg/kg,iv by LC-MS/MS analysis. It counts as ADME, organism-based, Sus scrofa domesticus. Details: dose 2 mg/kg, route iv. To be noted: pig, in vivo.
Data set [3] is described as follows: Cmax in male cynomolgus monkey at 10 mg/kg,po by LC-MS/MS analysis. The class given is ADME, organism-based, Macaca fascicularis. Details: dose 10 mg/kg, route po. To be noted: in vivo.
Data set [4] can be described thus: Cmax in male minipig at 10 mg/kg,po by LC-MS/MS analysis. Details: dose 10 mg/kg, route po. To be noted: pig, in vivo. The class given is ADME, organism-based, Sus scrofa domesticus.
A short description of data set [5]: Cmax in female cynomolgus monkey at 3 mg/kg,po by LC-MS/MS analysis. It counts as ADME, organism-based, Macaca fascicularis. Details: dose 3 mg/kg, route po. To be noted: in vivo.
Data set [6] is described as follows: Tmax in male cynomolgus monkey at 10 mg/kg,po by LC-MS/MS analysis. It counts as ADME, organism-based, Macaca fascicularis. The conditions noted are these: in vivo.
The nature of data set [7]: Tmax in male minipig at 3 mg/kg,po by LC-MS/MS analysis. The conditions noted are these: pig, in vivo. The class given is ADME, organism-based, Sus scrofa domesticus.
Data set [8] can be described thus: Tmax in male minipig at 10 mg/kg,po by LC-MS/MS analysis. The conditions noted are these: pig, in vivo. It counts as ADME, organism-based, Sus scrofa domesticus.
Data set [9] can be described thus: Tmax in female minipig at 3 mg/kg,po by LC-MS/MS analysis. The class given is ADME, organism-based, Sus scrofa domesticus. The conditions noted are these: pig, in vivo.
Data set [10] in a line: Half life in male minipig at 3 mg/kg,po by LC-MS/MS analysis. It counts as ADME, organism-based, Sus scrofa domesticus. The conditions noted are these: pig, in vivo.
The nature of data set [11]: Half life in female cynomolgus monkey at 10 mg/kg,po by LC-MS/MS analysis. The class given is ADME, organism-based, Macaca fascicularis. To be noted: in vivo.
The nature of data set [12]: AUClast in male minipig at 10 mg/kg,po by LC-MS/MS analysis. It counts as ADME, organism-based, Sus scrofa domesticus. Also on record: dose 10 mg/kg, route po. To be noted: pig, in vivo.
Data set [13] is described as follows: AUClast in female cynomolgus monkey at 3 mg/kg,po by LC-MS/MS analysis. It counts as ADME, organism-based, Macaca fascicularis. To be noted: in vivo. Details: dose 3 mg/kg, route po.
A short description of data set [14]: AUClast in female minipig at 10 mg/kg,po by LC-MS/MS analysis. The class given is ADME, organism-based, Sus scrofa domesticus. Also on record: dose 10 mg/kg, route po. The conditions noted are these: pig, in vivo.
Data set [15] is described as follows: Oral bioavailability in female cynomolgus monkey at 3 mg/kg by LC-MS/MS analysis. The class given is ADME, organism-based, Macaca fascicularis. To be noted: in vivo.
In data set [16] the target is Cytochrome P450 2C9 (Homo sapiens, UniProt P11712). In words: Inhibition of CYP2C9 (unknown origin). The class given is ADME.
Chain of Cytochrome P450 2C9 (P11712 whole entry): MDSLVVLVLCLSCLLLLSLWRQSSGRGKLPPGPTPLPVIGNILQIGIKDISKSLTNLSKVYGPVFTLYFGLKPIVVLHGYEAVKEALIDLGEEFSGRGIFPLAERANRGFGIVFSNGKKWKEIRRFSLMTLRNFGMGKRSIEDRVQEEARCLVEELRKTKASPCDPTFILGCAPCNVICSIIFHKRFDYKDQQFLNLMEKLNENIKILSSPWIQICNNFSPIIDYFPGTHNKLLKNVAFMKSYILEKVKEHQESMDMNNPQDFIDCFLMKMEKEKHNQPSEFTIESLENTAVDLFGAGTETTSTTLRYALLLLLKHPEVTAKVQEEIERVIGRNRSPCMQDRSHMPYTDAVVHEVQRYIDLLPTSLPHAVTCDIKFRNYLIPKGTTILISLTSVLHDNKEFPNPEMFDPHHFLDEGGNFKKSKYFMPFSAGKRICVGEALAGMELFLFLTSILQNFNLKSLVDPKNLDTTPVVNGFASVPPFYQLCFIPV

`CCOC(=O)C1=C(CN2CCN3C(=O)N(CC(C)(C)C(=O)O)C[C@@H]3C2)NC(c2nccs2)=N[C@H]1c1cccc(F)c1C` [LINVENCORVIR] returned an area under the curve AUC(0-inf) in data set [1] of 8850 ng·h/mL. Further, the AUC(0-t) in [2] stood at 1370 ng·h/mL; in [12] it was 1240 ng·h/mL; in [13] it was 253 ng·h/mL; in data set [14], 768 ng·h/mL. For the same compound, the peak concentration (Cmax) is 298 ng/mL in data set [3], 248 ng/mL in [4] and 100 ng/mL in data set [5]. Further, the time of peak concentration (Tmax) turned out to be 2 h in [6], 30 min in data set [7], 1 h in data set [8] and 1 h in data set [9]. Also, the values for the half-life in data set [10] and in [11] were 581 min and 488 min, respectively. This compound came in with a bioavailability in data set [15] of 14.5%. Further, the IC50 in data set [16] was over 50 µM.
